Reference: patent US20050123477A1, “Benzothiazole derivatives for in vivo imaging of amloid plaques” (priority 2002, published 2005)

Columns and labels:
[1] = Pharmacokinetics / biodistribution; type: in vivo, normal male wistar rats; details: for percentage injected dose, Blood / percentage injected dose, Brain / percentage injected dose, Fat / percentage injected dose, Kidney / percentage injected dose, LI (large intestines) / percentage injected dose, Muscle / percentage injected dose, SI (small intestines) / percentage injected dose, Skin / percentage injected dose, Spleen / percentage injected dose, Stomach / percentage injected dose, inj site / percentage injected dose, liver / percentage injected dose, lung / percentage injected dose, thyroid / percentage injected dose, urine: tail vein
Protocol: Compound 1 IMQ1961 prepared by Amersham Biosciences 250 μCi/ml (specific activity 2000Ci/mmol) freshly diluted to give 1 μCi/0.1 ml volume injection bolus. 15 normal male wistar rats 150-180 g (Charles River).
Male wistar rats were anaethetised briefly prior to injection with Compound 1 (1 μCi, 0.1 ml bolus tail vein). Biodistributions were performed at five time points (5, 15, 30, 60 and 120 mins) in triplicate animals in which tissues from brain, blood, muscle, kidney, spleen, stomach, small intestines, large intestines and faeces, bladder and urine, fat, skin and thyroid were dissected and counted for distribution of the compound in the body in a Wallac Wizzard gamma counter.
Percentage injected dose calculations were made and plotted using the Qk pharmacokinetics program to determine t½ α, and volume of distribution (VD). Relative retention (RR) and Brain:tissue ratios were calculated as follows; [formula] [formula] Results and Discussion

Capillary depletion = details: carotid bolus, brain removed ten seconds after injection
Protocol: Compounds that may appear to cross the blood-brain barrier may be sticking to the vasculature within the brain, rather than entering the brain parenchyma. For this reason a capillary depletion method was employed that separates the capillaries from brain homogenate.
Male Wistar rats weighing 150-250 g were deeply anaesthetised by the administration of 55 mg/kg sodium pentabarbital (Rhone-Meriaux) by intra peritoneal injection. The left common carotid artery was exposed by blunt dissection, and 100 μl of test solution injected in a single bolus into the carotid using a 30G needle and 1ml syringe (injection time ˜1 second). The injectate contained both the test/validation compound and ^14C— or ^3H-Sucrose (Amersham Biosciences) as a non-diffusable standard. Ten seconds after injection, the animal was decapitated and the brain removed. […] Pellet, supernatant and a sample of injection solution were counted on a Rackbeta Excel scintillation counter, after the addition of 10 ml Hionic Fluor scintillant (Packard). ^14C/^3H-Sucrose served to correct for vascular volume of vessels contained in the pellet, and also activity that had leaked from the vasculature into the supernatant during the homogenisation procedure.
Volumes of distribution for pellet and supernatant were calculated as shown below. Data is expressed as ratio of volume of distribution in the supernatant to pellet. […]

## Cc1cc(-c2nc3cc([125I])ccc3s2)ccc1N [Compound 1, 5-[^125I]-iodo-2-(4′-amino-3′-methylphenyl)benzothiazole]
[1]; 1 μCi tail vein bolus
  t½ (α) of clearance from brain: 12.4 min
[1]; 5 minutes
  relative retention, blood: 1.04
  relative retention, brain: 1.01
[1]; over two hour experiment, indicates in vivo stability to deiodination
  thyroid uptake: < 1%
[1]; rat, in vivo
  Clearance through the body: largely via the hepatobiliary system
[1]; 5 min
  percentage injected dose, Blood: 6.05 % ID
  percentage injected dose, Brain: 0.94 % ID
  percentage injected dose, Fat: 30.82 % ID
  percentage injected dose, Kidney: 3.14 % ID
  percentage injected dose, LI (large intestines): 1.53 % ID
  percentage injected dose, Muscle: 21.49 % ID
  percentage injected dose, SI (small intestines): 9.04 % ID
  percentage injected dose, Skin: 8.92 % ID
  percentage injected dose, Spleen: 0.69 % ID
  percentage injected dose, Stomach: 1.82 % ID
  percentage injected dose, inj site: 2.12 % ID
  percentage injected dose, liver: 19.47 % ID
  percentage injected dose, lung: 1.40 % ID
  percentage injected dose, thyroid: 0.16 % ID
  percentage injected dose, urine: 0.04 % ID
[1]; 15 min
  percentage injected dose, Blood: 4.14 % ID
  percentage injected dose, Brain: 0.75 % ID
  percentage injected dose, Fat: 36.31 % ID
  percentage injected dose, Kidney: 1.60 % ID
  percentage injected dose, LI (large intestines): 1.77 % ID
  percentage injected dose, Muscle: 19.83 % ID
  percentage injected dose, SI (small intestines): 12.60 % ID
  percentage injected dose, Skin: 12.80 % ID
  percentage injected dose, Spleen: 0.32 % ID
  percentage injected dose, Stomach: 2.56 % ID
  percentage injected dose, inj site: 1.86 % ID
  percentage injected dose, liver: 7.48 % ID
  percentage injected dose, lung: 0.49 % ID
  percentage injected dose, thyroid: 0.16 % ID
  percentage injected dose, urine: 2.10 % ID
[1]; 30 min
  percentage injected dose, Blood: 3.58 % ID
  percentage injected dose, Brain: 0.49 % ID
  percentage injected dose, Fat: 59.02 % ID
  percentage injected dose, Kidney: 0.95 % ID
  percentage injected dose, LI (large intestines): 1.90 % ID
  percentage injected dose, Muscle: 12.59 % ID
  percentage injected dose, SI (small intestines): 21.93 % ID
  percentage injected dose, Skin: 16.90 % ID
  percentage injected dose, Spleen: 0.19 % ID
  percentage injected dose, Stomach: 6.66 % ID
  percentage injected dose, inj site: 3.05 % ID
  percentage injected dose, liver: 4.46 % ID
  percentage injected dose, lung: 0.48 % ID
  percentage injected dose, thyroid: 0.39 % ID
  percentage injected dose, urine: 1.63 % ID
[1]; 60 min
  percentage injected dose, Blood: 2.77 % ID
  percentage injected dose, Brain: 0.29 % ID
  percentage injected dose, Fat: 73.92 % ID
  percentage injected dose, Kidney: 0.63 % ID
  percentage injected dose, LI (large intestines): 7.75 % ID
  percentage injected dose, Muscle: 7.79 % ID
  percentage injected dose, SI (small intestines): 28.42 % ID
  percentage injected dose, Skin: 17.14 % ID
  percentage injected dose, Spleen: 0.15 % ID
  percentage injected dose, Stomach: 8.98 % ID
  percentage injected dose, inj site: 1.83 % ID
  percentage injected dose, liver: 3.12 % ID
  percentage injected dose, lung: 0.34 % ID
  percentage injected dose, thyroid: 0.17 % ID
  percentage injected dose, urine: 8.39 % ID
[1]; 120 min
  percentage injected dose, Blood: 2.27 % ID
  percentage injected dose, Brain: 0.18 % ID
  percentage injected dose, Fat: 55.62 % ID
  percentage injected dose, Kidney: 0.45 % ID
  percentage injected dose, LI (large intestines): 3.12 % ID
  percentage injected dose, Muscle: 5.60 % ID
  percentage injected dose, SI (small intestines): 26.86 % ID
  percentage injected dose, Skin: 12.89 % ID
  percentage injected dose, Spleen: 0.08 % ID
  percentage injected dose, Stomach: 9.29 % ID
  percentage injected dose, inj site: 2.62 % ID
  percentage injected dose, liver: 2.39 % ID
  percentage injected dose, lung: 0.23 % ID
  percentage injected dose, thyroid: 0.95 % ID
  percentage injected dose, urine: 10.02 % ID
Capillary depletion
  Ratio of VD supernatant/pellet: 7.2
